# Data from ChEMBL document CHEMBL5465560, “Selectivity Literature for EUbOPEN Chemogenomic Library” (2024).
# Tests used:
# [1] = molecular target: T1, Calcium/calmodulin-dependent protein kinase type IV (Homo sapiens) (UniProt Q16566); assay: Selectivity interaction (Kinase panel (KiNativ target engagement assay in Jurkat cells)) EUB0001635a CAMK4; format: cell-based; settings: Selectivity number of off-targets 0.0, Selectivity number of targets 233.0, Source Knowledge https://www.sciencedirect.com/science/article/pii/S2451945619300674?via%3Dihub, at 1 µM
# T1 sequence (whole entry): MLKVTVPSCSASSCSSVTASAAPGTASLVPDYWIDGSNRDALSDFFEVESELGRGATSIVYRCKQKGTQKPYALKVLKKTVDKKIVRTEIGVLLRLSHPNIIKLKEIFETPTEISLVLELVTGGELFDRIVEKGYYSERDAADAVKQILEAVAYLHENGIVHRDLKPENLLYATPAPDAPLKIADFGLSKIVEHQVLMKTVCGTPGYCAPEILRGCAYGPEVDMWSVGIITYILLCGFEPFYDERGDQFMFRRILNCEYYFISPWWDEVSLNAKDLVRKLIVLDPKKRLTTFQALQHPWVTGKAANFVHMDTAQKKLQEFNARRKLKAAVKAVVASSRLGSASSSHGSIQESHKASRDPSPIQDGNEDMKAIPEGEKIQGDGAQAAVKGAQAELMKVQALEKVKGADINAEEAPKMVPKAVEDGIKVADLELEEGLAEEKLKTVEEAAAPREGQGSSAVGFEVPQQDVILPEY
# [2] = molecular target: Serine/threonine-protein kinase PLK1 (Homo sapiens, UniProt P53350); assay: Selectivity interaction (Kinase panel (KiNativ target engagement assay in Jurkat cells)) EUB0001635a PLK1; format: cell-based; settings: Selectivity number of off-targets 0.0, Selectivity number of targets 233.0, Source Knowledge https://www.sciencedirect.com/science/article/pii/S2451945619300674?via%3Dihub, at 1 µM
# [3] = molecular target: Phosphatidylinositol 4-phosphate 3-kinase C2 domain-containing subunit beta (Homo sapiens) (UniProt O00750); assay: Selectivity interaction (KinomeScan (DiscoverX)) EUB0000229b PIK3C2B; settings: at 10 µM
# [4] = molecular target: Cyclin-dependent kinase 19 (Homo sapiens) (UniProt Q9BWU1); assay: Selectivity interaction (KinomeScan (DiscoverX)) EUB0000229b CDK19; settings: at 10 µM
# [5] = molecular target: T2, Membrane-associated tyrosine- and threonine-specific cdc2-inhibitory kinase (Homo sapiens) (UniProt Q99640); assay: Selectivity interaction (KinomeScan (DiscoverX)) EUB0000229b PKMYT1; settings: at 10 µM
# T2 sequence (whole entry): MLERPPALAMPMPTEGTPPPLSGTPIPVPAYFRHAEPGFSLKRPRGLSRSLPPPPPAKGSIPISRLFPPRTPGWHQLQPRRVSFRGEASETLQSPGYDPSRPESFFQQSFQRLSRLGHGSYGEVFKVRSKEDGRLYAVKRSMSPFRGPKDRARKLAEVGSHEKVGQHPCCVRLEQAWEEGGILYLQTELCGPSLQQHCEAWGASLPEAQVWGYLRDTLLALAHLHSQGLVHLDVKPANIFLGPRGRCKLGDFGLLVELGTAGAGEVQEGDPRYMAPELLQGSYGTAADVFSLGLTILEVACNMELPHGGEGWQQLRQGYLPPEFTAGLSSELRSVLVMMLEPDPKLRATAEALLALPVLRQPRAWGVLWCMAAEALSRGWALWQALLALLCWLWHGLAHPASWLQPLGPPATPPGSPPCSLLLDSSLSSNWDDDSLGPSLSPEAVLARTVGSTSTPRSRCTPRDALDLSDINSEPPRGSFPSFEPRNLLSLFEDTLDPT
# [6] = molecular target: Ribosomal protein S6 kinase alpha-5 (Homo sapiens) (UniProt O75582); settings: at 10 µM
# [7] = molecular target: Calcium/calmodulin-dependent protein kinase type 1 (Homo sapiens) (UniProt Q14012); assay: Selectivity interaction (KinomeScan (DiscoverX)) EUB0000595a CAMK1; settings: at 10 µM
# [8] = molecular target: Eukaryotic translation initiation factor 2-alpha kinase 1 (Homo sapiens) (UniProt Q9BQI3); assay: Selectivity interaction (KinomeScan (DiscoverX)) EUB0001079a EIF2AK1; settings: at 1 µM
# [9] = molecular target: Hepatocyte growth factor receptor (Homo sapiens, UniProt P08581); assay: Selectivity interaction (Rxn Biology Kinase assay) EUB0001632a MET; settings: at 10 µM
# [10] = molecular target: Histone-lysine N-methyltransferase 2A (Homo sapiens) (UniProt Q03164); assay: Selectivity interaction (Bromodomain panel (DSF asssay)) EUB0000270b MLL
# [11] = molecular target: Serine/threonine-protein kinase PAK 6 (Homo sapiens) (UniProt Q9NQU5); assay: Selectivity interaction (KinomeScan (DiscoverX)) EUB0001049a PAK6; settings: at 1 µM
# [12] = molecular target: Angiopoietin-1 receptor (Homo sapiens) (UniProt Q02763); assay: Selectivity interaction (KinomeScan (DiscoverX)) EUB0001049a TEK; settings: at 1 µM
# [13] = molecular target: Serine/threonine-protein kinase 25 (Homo sapiens) (UniProt O00506); assay: Selectivity interaction (ActivX KiNativ screen (ex vivo kinase selectivity in human PBMCs)) EUB0001619a STK25; format: cell-based; settings: PBMC, at 1 µM
# [14] = molecular target: Histone-lysine N-methyltransferase, H3 lysine-36 specific (Homo sapiens) (UniProt Q96L73); assay: Selectivity interaction (Methyltransferase screen (Scintillation proximity assays)) EUB0000255b NSD1; settings: at 1 µM
# [15] = molecular target: 5'-AMP-activated protein kinase catalytic subunit alpha-1 (Homo sapiens, UniProt Q13131); assay: Selectivity interaction (KinomeScan (DiscoverX)) EUB0000607a PRKAA1; settings: at 10 µM
# [16] = molecular target: Calcium/calmodulin-dependent protein kinase type 1D (Homo sapiens) (UniProt Q8IU85); assay: Selectivity interaction (Kinase panel (DSF assay)) EUB0001558a CAMK1D
# SRSF protein kinase 1 = SRSF protein kinase 1 (Homo sapiens, UniProt Q96SB4); assay: Selectivity interaction (KinomeScan (DiscoverX)) EUB0000618a SRPK1; settings: at 10 µM
# [17] = molecular target: T1, Calcium/calmodulin-dependent protein kinase type IV (Homo sapiens); assay: Selectivity interaction (Kinase panel (Invitrogen)) EUB0000639a CAMK4; settings: at 200 nM
# [18] = molecular target: Serine/threonine-protein kinase pim-1 (Homo sapiens, UniProt P11309); assay: Selectivity interaction (Ambit KINOMEscan and KiNATiv profiling in Jurkat cells) EUB0000090b PIM1; format: cell-based; settings: at 1 µM
# [19] = molecular target: T3, Serine/threonine-protein kinase Sgk1 (Homo sapiens) (UniProt O00141); assay: Selectivity interaction (Ambit KINOMEscan and KiNATiv profiling in Jurkat cells) EUB0000090b SGK1; format: cell-based; settings: at 1 µM
# T3 sequence (whole entry): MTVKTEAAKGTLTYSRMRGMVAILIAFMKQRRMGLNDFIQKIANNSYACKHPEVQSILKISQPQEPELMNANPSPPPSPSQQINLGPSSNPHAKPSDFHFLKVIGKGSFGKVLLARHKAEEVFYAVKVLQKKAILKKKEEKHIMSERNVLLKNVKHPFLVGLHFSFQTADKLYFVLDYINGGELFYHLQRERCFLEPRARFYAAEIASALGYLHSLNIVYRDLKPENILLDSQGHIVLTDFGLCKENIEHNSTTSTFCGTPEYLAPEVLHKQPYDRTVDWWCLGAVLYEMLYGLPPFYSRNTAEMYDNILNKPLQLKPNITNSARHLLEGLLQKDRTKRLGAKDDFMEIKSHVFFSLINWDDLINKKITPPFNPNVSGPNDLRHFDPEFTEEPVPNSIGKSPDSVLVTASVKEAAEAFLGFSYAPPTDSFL
# Chain of Phosphatidylinositol 4-phosphate 3-kinase C2 domain-containing subunit beta (Homo sapiens) (O00750 whole entry, the tested form may be a part): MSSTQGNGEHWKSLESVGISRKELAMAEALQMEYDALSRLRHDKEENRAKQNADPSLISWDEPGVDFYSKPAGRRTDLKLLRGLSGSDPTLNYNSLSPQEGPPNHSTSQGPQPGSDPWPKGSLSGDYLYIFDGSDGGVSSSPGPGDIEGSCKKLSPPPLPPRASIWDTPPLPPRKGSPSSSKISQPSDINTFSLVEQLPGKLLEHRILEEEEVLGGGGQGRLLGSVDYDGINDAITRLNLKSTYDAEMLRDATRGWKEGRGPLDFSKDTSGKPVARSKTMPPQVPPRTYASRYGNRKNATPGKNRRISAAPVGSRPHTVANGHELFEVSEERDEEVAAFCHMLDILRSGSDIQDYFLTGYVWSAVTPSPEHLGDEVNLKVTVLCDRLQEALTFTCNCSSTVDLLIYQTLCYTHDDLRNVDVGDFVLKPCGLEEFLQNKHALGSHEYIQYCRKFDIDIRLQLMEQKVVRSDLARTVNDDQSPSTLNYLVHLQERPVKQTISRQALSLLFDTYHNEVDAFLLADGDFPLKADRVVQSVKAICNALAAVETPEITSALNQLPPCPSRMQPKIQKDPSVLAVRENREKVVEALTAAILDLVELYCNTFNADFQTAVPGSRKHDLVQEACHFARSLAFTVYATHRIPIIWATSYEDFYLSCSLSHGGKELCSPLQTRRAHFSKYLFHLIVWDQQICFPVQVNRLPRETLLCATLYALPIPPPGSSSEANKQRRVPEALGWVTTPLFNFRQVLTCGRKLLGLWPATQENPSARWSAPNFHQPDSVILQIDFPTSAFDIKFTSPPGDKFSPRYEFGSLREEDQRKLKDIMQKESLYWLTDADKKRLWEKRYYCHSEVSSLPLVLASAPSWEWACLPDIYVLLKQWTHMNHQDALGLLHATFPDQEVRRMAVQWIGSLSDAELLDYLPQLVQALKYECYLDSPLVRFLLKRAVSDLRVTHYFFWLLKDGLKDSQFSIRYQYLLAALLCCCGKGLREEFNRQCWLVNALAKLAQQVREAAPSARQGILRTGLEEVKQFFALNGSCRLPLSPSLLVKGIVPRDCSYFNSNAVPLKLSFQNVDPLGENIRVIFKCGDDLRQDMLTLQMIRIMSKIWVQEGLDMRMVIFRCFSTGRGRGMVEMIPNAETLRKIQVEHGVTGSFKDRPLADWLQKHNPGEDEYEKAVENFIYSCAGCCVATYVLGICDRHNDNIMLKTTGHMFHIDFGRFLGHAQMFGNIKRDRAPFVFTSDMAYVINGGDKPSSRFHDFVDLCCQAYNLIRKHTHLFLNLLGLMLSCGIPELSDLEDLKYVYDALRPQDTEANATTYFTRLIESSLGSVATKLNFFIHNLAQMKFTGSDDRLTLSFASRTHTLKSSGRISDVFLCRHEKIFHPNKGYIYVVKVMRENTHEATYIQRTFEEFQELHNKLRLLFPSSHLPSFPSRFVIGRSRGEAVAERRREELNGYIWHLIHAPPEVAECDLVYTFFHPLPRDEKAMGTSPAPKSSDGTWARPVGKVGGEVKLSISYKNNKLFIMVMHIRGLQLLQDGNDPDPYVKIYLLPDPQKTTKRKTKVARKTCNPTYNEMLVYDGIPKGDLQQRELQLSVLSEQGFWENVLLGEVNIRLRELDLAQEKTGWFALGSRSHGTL
# Chain of Histone-lysine N-methyltransferase, H3 lysine-36 specific (Homo sapiens) (Q96L73 whole entry): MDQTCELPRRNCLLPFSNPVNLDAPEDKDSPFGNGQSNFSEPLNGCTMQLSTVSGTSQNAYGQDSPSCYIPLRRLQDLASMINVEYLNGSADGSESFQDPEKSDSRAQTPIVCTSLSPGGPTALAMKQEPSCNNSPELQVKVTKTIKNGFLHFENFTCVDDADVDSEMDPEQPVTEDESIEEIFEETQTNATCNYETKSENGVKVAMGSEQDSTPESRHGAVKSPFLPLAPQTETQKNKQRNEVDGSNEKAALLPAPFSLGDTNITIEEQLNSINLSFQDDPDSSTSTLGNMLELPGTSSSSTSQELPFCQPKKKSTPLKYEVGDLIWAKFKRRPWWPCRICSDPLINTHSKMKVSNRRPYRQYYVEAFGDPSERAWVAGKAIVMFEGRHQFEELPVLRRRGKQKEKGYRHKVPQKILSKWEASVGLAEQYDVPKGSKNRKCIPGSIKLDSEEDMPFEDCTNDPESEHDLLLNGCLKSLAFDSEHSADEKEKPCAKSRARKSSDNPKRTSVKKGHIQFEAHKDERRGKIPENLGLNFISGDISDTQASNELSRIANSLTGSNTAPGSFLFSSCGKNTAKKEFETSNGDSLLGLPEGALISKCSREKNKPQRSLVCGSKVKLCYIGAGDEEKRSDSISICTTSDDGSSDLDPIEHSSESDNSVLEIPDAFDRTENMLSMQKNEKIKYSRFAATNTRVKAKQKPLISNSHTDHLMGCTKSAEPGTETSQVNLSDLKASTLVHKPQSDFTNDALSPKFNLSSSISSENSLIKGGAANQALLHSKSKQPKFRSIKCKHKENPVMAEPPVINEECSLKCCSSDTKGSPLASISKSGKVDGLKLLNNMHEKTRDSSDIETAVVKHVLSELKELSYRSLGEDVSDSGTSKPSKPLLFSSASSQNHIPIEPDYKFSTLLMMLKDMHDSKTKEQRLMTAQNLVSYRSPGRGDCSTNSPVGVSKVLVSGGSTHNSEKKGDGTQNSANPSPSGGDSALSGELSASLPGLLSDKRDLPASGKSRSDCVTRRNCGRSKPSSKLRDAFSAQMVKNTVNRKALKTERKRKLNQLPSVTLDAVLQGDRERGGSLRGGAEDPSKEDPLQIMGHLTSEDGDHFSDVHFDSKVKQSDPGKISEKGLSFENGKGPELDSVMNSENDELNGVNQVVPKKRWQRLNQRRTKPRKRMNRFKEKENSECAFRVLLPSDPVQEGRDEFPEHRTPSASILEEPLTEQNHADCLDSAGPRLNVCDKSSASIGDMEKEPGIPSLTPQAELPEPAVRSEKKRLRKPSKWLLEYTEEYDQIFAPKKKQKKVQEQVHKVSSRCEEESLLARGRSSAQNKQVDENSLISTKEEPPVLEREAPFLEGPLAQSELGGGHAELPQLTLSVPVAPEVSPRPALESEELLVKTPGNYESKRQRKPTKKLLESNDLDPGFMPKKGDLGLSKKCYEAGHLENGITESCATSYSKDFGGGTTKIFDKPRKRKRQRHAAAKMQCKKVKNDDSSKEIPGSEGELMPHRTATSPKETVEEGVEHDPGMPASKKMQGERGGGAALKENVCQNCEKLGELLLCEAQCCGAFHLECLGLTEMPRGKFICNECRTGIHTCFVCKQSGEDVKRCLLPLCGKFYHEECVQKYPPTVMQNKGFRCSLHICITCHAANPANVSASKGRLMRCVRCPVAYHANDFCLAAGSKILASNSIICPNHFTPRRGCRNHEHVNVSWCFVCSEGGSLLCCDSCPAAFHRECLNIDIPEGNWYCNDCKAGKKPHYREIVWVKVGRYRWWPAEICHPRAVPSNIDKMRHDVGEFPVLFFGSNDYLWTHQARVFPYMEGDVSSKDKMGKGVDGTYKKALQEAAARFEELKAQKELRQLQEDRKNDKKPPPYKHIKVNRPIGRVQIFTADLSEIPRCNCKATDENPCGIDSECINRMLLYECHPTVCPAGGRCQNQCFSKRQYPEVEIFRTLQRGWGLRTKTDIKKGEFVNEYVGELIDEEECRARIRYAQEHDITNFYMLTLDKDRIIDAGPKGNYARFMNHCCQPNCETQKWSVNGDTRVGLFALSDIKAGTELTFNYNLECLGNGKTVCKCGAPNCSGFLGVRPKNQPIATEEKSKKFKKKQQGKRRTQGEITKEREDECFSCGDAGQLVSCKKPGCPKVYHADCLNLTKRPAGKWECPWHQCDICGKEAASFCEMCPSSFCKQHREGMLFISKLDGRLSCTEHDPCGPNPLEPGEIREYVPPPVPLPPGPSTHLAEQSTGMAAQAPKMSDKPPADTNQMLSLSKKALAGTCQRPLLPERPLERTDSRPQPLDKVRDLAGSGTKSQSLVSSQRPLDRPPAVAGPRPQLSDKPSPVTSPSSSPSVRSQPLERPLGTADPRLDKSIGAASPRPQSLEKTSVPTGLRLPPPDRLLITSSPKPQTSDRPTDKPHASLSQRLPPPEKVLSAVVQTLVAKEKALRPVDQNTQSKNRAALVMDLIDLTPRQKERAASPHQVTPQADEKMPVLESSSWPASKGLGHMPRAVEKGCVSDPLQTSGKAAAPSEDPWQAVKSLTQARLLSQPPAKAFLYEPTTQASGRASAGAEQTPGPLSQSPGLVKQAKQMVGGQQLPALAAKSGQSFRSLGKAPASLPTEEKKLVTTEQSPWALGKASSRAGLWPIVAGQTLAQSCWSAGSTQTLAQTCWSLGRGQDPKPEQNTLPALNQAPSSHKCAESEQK
# Chain of Serine/threonine-protein kinase pim-1 (P11309 whole entry, looked up): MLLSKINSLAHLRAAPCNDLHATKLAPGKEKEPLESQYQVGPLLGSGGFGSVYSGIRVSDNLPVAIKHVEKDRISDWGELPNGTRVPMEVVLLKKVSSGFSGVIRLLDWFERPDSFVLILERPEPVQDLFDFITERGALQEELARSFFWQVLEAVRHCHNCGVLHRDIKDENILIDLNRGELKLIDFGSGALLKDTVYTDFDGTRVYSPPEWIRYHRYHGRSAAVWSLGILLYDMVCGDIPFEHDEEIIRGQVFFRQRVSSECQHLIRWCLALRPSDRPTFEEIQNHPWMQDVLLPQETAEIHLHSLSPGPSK
# Chain of Serine/threonine-protein kinase 25 (Homo sapiens) (O00506 whole entry, looked up): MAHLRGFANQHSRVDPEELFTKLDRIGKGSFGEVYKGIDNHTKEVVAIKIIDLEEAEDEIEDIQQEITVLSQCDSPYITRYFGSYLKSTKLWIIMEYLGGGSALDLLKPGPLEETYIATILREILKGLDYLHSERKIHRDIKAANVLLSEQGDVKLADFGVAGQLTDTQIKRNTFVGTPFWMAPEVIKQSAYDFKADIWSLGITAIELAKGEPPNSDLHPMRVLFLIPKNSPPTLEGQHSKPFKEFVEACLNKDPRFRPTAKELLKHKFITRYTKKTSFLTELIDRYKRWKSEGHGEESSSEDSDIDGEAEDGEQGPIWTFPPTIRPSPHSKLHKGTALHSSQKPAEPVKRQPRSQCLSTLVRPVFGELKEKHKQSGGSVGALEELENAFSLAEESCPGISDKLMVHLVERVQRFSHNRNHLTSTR
structure (smiles),measurement,setting,value
C=CC(=O)Nc1ccc(C(=O)Nc2[nH]nc3c2CN(C(=O)N[C@H](CN(C)C)c2ccccc2)C3(C)C)cc1,% of engagement,[1],-8.6%
same,% of engagement,[2],5%
COc1cc(N(C)c2ccnc3ccc(C(F)(F)F)cc23)cc(OC)c1OC,% binding,[3],100%
same,% binding,[4],69%
same,% binding,[5],94%
COCC(=O)NC/C=C/c1ccc2ncnc(Nc3ccc(Oc4ccc(C)nc4)c(C)c3)c2c1 [CP-724714],% of control,[6],98%
same,% of control,[7],72%
Nc1cnc(N2CCc3cc(S(=O)(=O)Nc4c(F)cc(Cl)cc4F)cc(N4CCCC4=O)c32)nc1 [TP-020n],% of control,[8],94%
Cn1cc(-n2cnc3c(NCc4nc5cc(Cl)c(Cl)cc5[nH]4)nc(N4CCOCC4)nc32)cn1,% of inhibition,[9],-31.5%
Cc1cc(CN)cc(C)c1-c1ncn(C)c1-c1cncn1C,dTM,[10],-1.04 K
COc1cc(Nc2nc(C)cc(-c3cnn4nc(OC)ccc34)n2)cc(C(F)(F)F)c1,% of control,[11],82%
same,% of control,[12],100%
N#Cc1cccc(-c2c[nH]c3ncnc(N4CCOCC4)c23)c1,% of inhibition,[13],65%
COCCN1CCC(c2cc(CN(C)C(=O)c3cccc(Oc4ccccc4)c3)ccn2)CC1,% activity,[14],90%
CNC(=O)Nc1ccc(-c2nc(N3CC4CCC(C3)O4)c3cnn(C4CCC5(CC4)OCCO5)c3n2)cc1,% of control,[15],94%
CC(C)(O)[C@H](F)CN1Cc2cc(NC(=O)c3cnn4cccnc34)c(N3CCOCC3)cc2C1=O,dTM,[16],-0.1 K
O[C@H]1CC[C@H](Nc2ncc3nc(Nc4c(F)cc(F)cc4F)n([C@H]4CCOC4)c3n2)CC1,% of control,SRSF protein kinase 1,100%
CC[C@@H]1[C@H](F)C(=O)N[C@@H]1COc1nccc2cc(C(N)=O)c(OC)cc12 [ZIMLOVISERTIB],% of inhibition,[17],-8.2%
CN(C)C/C=C/C(=O)Nc1ccc(C(=O)N2CCCC(Nc3ncc(Cl)c(-c4c[nH]c5ccccc45)n3)C2)cc1 (stereo not given),% of control,[18],100%
same,% of control,[19],99%
